According to US7517857B2, “Immune-modulating peptide” (POSCO, priority 2002, dated 2009):
Where a SMILES comes first, the peptide text is derived from it. [ ]: non-standard residue; d: D form.

Tests used:
CT26, colon carcinoma = assay: Tumor growth in CT26-injected Balb/c mice; type: in vivo
Procedure: (§1) CT26, EL4 were maintained at 37° C. in a humidified 5% CO2 atmosphere in RPMA1640 medium supplemented with 20% (vol/vol) heat-inactivated fetal bovine serum. For animal experiments, the cells were passaged two to five times after re-growth from frozen stocks. Log phase CT26 cells were detached from tissue culture flasks with 0.25% trypsin and 0.03% EDTA. CT26 and EL4 were washed and resuspended in PBS immediately before injection.
In order to assess the antitumor effect of immuno-modulating peptide, Trp-Arg-Tyr-Met-Val-D-Met-CONH2, (WRYMVm; (SEQ ID NO: 4)), CT26, colon carcinoma was tested in Balb/c mice model. Tumor mass was measured in size every two days after 6 days from tumor cell inoculation.
To find the effective tumor-suppressing dose of WRYMVm, 0.1 μg/mouse, 0.25 μg/mouse, and 1 μg/mouse of WRYMVm were administered to CT26/Balb/c model. […] A similar phenomenon is easily found in chemotactic migration of leukocytes. In view of the fact that FPRL1, which is a target receptor for WRYMVm, is related to the chemotactic migration event, it is concluded that WRYMVm-induced antitumor effect might be derived from leukocyte infiltration event. Therefore, it is quite necessary to reveal the direct relationship between the WRYMVm-induced antitumor effect and the leukocyte infiltration event.

FPR [1] = target: T1, FPR (Homo sapiens, UniProt P21462); assay: Exocytosis: β-hexosaminidase secretion in FPR-expressing RBL-2H3 cells; type: cell-based; settings: FPR cells; 10 μM BAPTA/AM prior to 1 μM WKYMVm
T1 construct: expressed in transfected cells; host or cells: RBL-2H3 (rat basophilic leukemia) cells, G418-selected
T1 sequence (P21462 1-350): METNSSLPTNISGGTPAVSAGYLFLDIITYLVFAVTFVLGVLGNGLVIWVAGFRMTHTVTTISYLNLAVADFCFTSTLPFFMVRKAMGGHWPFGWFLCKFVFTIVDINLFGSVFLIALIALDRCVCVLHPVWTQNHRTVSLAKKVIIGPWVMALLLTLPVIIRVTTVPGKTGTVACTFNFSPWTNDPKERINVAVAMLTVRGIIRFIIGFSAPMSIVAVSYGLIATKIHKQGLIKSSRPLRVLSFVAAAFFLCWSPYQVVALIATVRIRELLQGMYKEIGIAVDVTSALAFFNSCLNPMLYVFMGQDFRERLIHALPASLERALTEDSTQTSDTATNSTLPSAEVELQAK
Procedure: (§2) Granule secretion is one of the most important function of mast cells (20). The effect of WKYMVm on granule secretion was checked by measuring β-hexosaminidase secretion as described above (18). Briefly, RBL-2H3 cells (2×10^5/well) expressing FPR or FPRL1 were cultured overnight in a 24-well tissue culture plate. The cells were washed twice with Tyrode's buffer (137 mM NaCl, 12 mM NaHCO3, 5.6 mM glucose, 2.7 mM KCl, 1 mM CaCl2, 0.5 mM MgCl2, 0.4 mM NaH2PO4, 0.1g/100 ml BSA, and 25 mM HEPES, pH 7.4) and stimulated with each peptide. Various concentrations of WKYMVm were treated in FPR- or FPRL1-expressing RBL-2H3 cells (FIG. 5A). 1 μM of WKYMVm was used to stimulate two cell lines in the absence or presence of 10 μM BAPTA/AM (FIG. 5B). The reaction was terminated 20 min after stimulation by placing the plate on ice. Secretion of β-hexosaminidase into the medium was determined by incubating 50 μl of supernatant or cell lysate with 25 μl of 5 mM p-nitrophenyl-N-acetyl-β-D-glucosamide in 0.1 M sodium citrate buffer (pH 3.8) at 37° C. for 2 hr. At the end of the incubation, 50 μl of 0.4 M Na2CO3 were added. Absorbance was monitored at 405 nm. Data are means ±S.E. of a single representative of three experiments performed in triplicate. Values (means ±S.E.) were expressed as a percent of total β-hexosaminidase present in the cells.
From the new finding that cytosolic calcium release was induced by WKYMVm and many of the substituted peptides of WKYMVm but not by some of them (WKGMVm (SEQ ID NO: 1), WKRMVm (SEQ ID NO: 11), D-Met^6 substituted peptides), the effect of the peptides on granule secretion in RBL cells was checked. 10 μM of each peptide was treated in FPR- (FIG. 6A) or FPRL1-expressing RBL-2H3 cells (FIG. 6B). The peptide-induced secretion of β-hexosaminidase was determined as above. Data are means ±S.E. of a single representative of three experiments performed in triplicate.

FPR [2] = target: T1, FPR; assay: ERK phosphorylation in FPR-expressing RBL-2H3 cells (immunoblot); type: cell-based; settings: pretreatment prior to 1 μM WKYMVm, PTX 100 ng/ml, LY294002 50 μM, GFX 5 μM, BAPTA/AM 10 μM, PD98059 50 μM
Procedure: (§3) Cultured RBL-2H3 cells were aliquoted into 2×10^6 cells and stimulated with the indicated concentrations of WKYMVm and the peptides of the present invention for the indicated lengths of time. FPR- or FPRL1-expressing RBL-2H3 cells were stimulated with 1 μM WKYMVm for various periods of time (FIG. 3A). Two cells were preincubated with a vehicle or 100 ng/ml of PTX (24 hr), 50 μM of LY294002 (15 min), 5 μM of GFX (15 min), 10 μM BAPTA/AM (60 min), or 50 μM PD98059 (60 min) prior to 1 μM of WKYMVm treatment (FIG. 3B). FPR- or FPRL1-expressing RBL2H3 cells were stimulated with 10 μM of the peptides of the present invention for 2 min or 5 min, respectively (FIG. 3C).
(§4) After stimulation, the cells were washed with serum-free RPMI and lysed in a lysis buffer (20 mM Hepes, pH 7.2, 10% glycerol, 150 mM NaCl, 1% Triton X-100, 50 mM NaF, 1 mM Na3VO4, 10 μg/ml leupeptin, 10 μg/ml aprotinin, and 1 mM phenylmethylsulfonyl fluoride). The detergent-insoluble materials were pelleted by centrifugation (12,000×g, 15 min, at 4° C.), and the soluble supernatant fraction was removed and stored at −80° C. or used immediately. Protein concentrations in the lysates were determined using the Bradford protein assay reagent.
(§5) Each sample ([…] of protein) was subjected to 10% SDS-PAGE and phosphorylated ERK was determined by an immunoblot analysis with an anti-phospho-ERK antibody. Protein samples were prepared for electrophoresis by addition of a concentrated sample buffer. The portions in the samples were then separated by an 10% SDS-polyacrylamide gel using the buffer system described by Laemmli (17).
(§6) Following the electrophoresis, a western blot analysis with an anti-ERK2 antibody was performed to confirm that the same amounts of samples were used for the experiments. The proteins were blotted onto nitrocellulose membranes. The nitrocellulose membranes were then blocked by incubation with TBS (Tris-buffered saline, 0.05% Tween-20) containing 5% non-fat dry milk. Subsequently, the membranes were incubated with anti-phospho-ERK antibody, anti-phospho-Akt antibody or anti-Akt antibody washed with TBS. For a PKC translocation assay, an antibody for PKC isozyme-specific was incubated. Antigen-antibody complexes were visualized after incubating the membrane with a 1:5000 diluted goat anti-rabbit IgG or goat anti-mouse IgG antibody coupled to horseradish peroxidase and using the enhanced chemiluminescence detection system.

FPRL1 [3] = target: T2, FPRL1 (Homo sapiens, UniProt P25090); assay: Exocytosis: β-hexosaminidase secretion in FPRL1-expressing RBL-2H3 cells; type: cell-based; settings: FPRL1 cells; 10 μM BAPTA/AM prior to 1 μM WKYMVm
T2 construct: expressed in transfected cells; host or cells: RBL-2H3 (rat basophilic leukemia) cells, G418-selected
T2 sequence (P25090 1-351): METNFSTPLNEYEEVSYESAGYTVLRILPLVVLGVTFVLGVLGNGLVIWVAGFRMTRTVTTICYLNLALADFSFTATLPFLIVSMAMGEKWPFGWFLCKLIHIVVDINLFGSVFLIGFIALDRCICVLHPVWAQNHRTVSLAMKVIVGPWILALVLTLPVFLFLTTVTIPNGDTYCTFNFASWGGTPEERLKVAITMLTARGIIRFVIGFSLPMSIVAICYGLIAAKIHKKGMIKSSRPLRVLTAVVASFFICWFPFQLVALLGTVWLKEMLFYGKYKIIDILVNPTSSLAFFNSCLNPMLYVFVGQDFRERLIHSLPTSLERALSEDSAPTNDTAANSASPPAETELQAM
Procedure: as §2
10 μM of each peptide was treated in FPR- (FIG. 6A) or FPRL1-expressing RBL-2H3 cells (FIG. 6B). The peptide-induced secretion of β-hexosaminidase was determined as above. Data are means ±S.E. of a single representative of three experiments performed in triplicate.

FPRL1 [4] = target: T2, FPRL1; assay: ERK phosphorylation in FPRL1-expressing RBL-2H3 cells (immunoblot); type: cell-based; settings: pretreatment prior to 1 μM WKYMVm, PTX 100 ng/ml, LY294002 50 μM, GFX 5 μM, BAPTA/AM 10 μM, PD98059 50 μM
Procedure: as §3, §4, §5, §6

human neutrophils = assay: Superoxide generation in human neutrophils (cytochrome c reduction); type: cell-based; settings: for O^2− (nmol/10^6 cells), superoxide generation: cytochrome c reduction
Procedure: Peripheral blood leukocyte concentrates were donated by the Ulsan Red Cross Blood Center (Ulsan, Korea). Human neutrophils were isolated according to the standard procedures of dextran sedimentation, hypotonic lysis of erythrocytes, and a lymphocyte separation medium gradient as described above (9). The isolated human neutrophils were then used promptly.
The activity of the peptides, WKYMVm, peptides of SEQ ID NOs: 1 to 24, and wkymvm on superoxide generation in human neutrophils was measured. Superoxide anion generation was quantified by measuring reduction of cytochrome c using a microtiter 96-well plate ELISA reader (Bio-Tekinstruments, EL312e, Winooski, Vt.) as described (14). The human neutrophils (1×10^6 cells/100 μl of RPMI 1640 medium per well of a 96-well plate) were preincubated with 50 μM cytochrome c at 37° C. for 1 min and then incubated with the indicated concentrations of peptides. The superoxide generation was measured as a change in light absorption at 550 nm over 5 minutes at 1 min intervals. From at least four independent experiments, peptides with active amino acids at each position were chosen.

FPRL1 [5] = target: T2, FPRL1; assay: [Ca2+]i increase in FPRL1-expressing RBL-2H3 cells (fura-2); type: cell-based
Procedure: […] The level of [Ca^2+]i was determined fluorometrically by Grynkiewicz's method using fura-2/AM (15). Briefly, prepared cells were incubated with 3 μM fura-2/AM at 37° C. for 50 min in a fresh serum-free RPMI 1640 medium under continuous stirring. 2×10^6 cells were aliquoted for each assay in Ca^2+-free Locke's solution (154 mM NaCl, 5.6 mM KCl, 1.2 mM MgCl2, 5 mM HEPES, pH 7.3, 10 mM glucose, and 0.2 mM EGTA). Fluorescence changes at the dual excitation wavelengths of 340 nm and 380 nm and the emission wavelength of 500 nm were measured, and the calibrated fluorescence ratio was translated into [Ca^2+]i. The peak level of the increased [Ca^2+]i was monitored.
[…] The level of [Ca^2+]i was determined by the same procedures as above. The peak level of the increased [Ca^2+]i was monitored.

EL4, lymphoma cells = assay: Tumor growth in EL4-injected C57/BL6 mice; type: in vivo; settings: EL4 2×10^5 cells/mouse s.c.
Procedure: as §1
To confirm the antitumor effect of WRYMVm, another tumor model, EL4, lymphoma cells was tested. In order to form the tumor mass of EL4, EL4 (2×10^5 cells/mouse) were injected s.c to C57/BL6 mice. […] Overall, it appears obvious that WRYMVm has a tumor growth-suppressing effect in mice model.

Compound: 5′-TCGTCGTTTTGTCGTTTTGTCGTT-3′ [CpG ODN, reference compound]
- effect on tumor growth (CT26, colon carcinoma; 100 μg/mouse i.p.): didn't show any effect on tumor growth
- survival (tumor; survival rate, FIG. 12B): failed to prevent death

Compound: CC(=O)OCOC(=O)CN(CC(=O)OCOC(C)=O)c1ccccc1OCCOc1ccccc1N(CC(=O)OCOC(C)=O)CC(=O)OCOC(C)=O [BAPTA/AM]
- effect on WKYMVm-induced granule secretion (FPR [1]): almost completely inhibited WKYMVm-induced granule secretion
- effect of inhibitor pretreatment on WKYMVm-induced ERKs activation (FPR [2]): could not effect WKYMVm-induced ERK activation
- effect on WKYMVm-induced granule secretion (FPRL1 [3]): almost completely inhibited WKYMVm-induced granule secretion
- effect of inhibitor pretreatment on WKYMVm-induced ERKs activation (FPRL1 [4]): could not effect WKYMVm-induced ERK activation

Compound: CSCC[C@H](NC(=O)[C@H](Cc1ccc(O)cc1)NC(=O)[C@H](CCCNC(=N)N)NC(=O)[C@@H](N)Cc1c[nH]c2ccccc12)C(=O)N[C@H](C(=O)N[C@H](CCSC)C(N)=O)C(C)C [WRYMVm-NH2, Trp-Arg-Tyr-Met-Val-D-Met-NH2] (H-WRYMV[dM]-NH2; N-terminus assumed)
- superoxide generating activity (human neutrophils; 100 nM of peptides): stimulated superoxide generation
- O^2− (nmol/10^6 cells), superoxide generation (human neutrophils; peptide 100 nM): 47.1 ± 11.23 nmol/10^6 cells
- O^2− (nmol/10^6 cells), superoxide generation (human neutrophils; peptide 10 μM): 38.2 ± 6.54 nmol/10^6 cells
- tumor suppression (CT26, colon carcinoma; 0.1 μg/mouse, compared with 0.25 and 1 μg/mouse): highest effectiveness in the tumor suppression
- tumor suppression (CT26, colon carcinoma; 1 μg/mouse): the tumor suppressing effect was lowered
- tumor growth in CT26-injected mice (figure legend) (CT26, colon carcinoma; FIGS. 9A and 9B): attenuates tumor growth
- [Ca^2+]i increasing activity (FPRL1 [5]): higher affinity to FPRL1
- EC50 (FPRL1 [5]; fura-2 loaded, read-out: EC50 (nM), intracellular calcium increase): 0.12 ± 0.01 nM
- tumor mass suppression (EL4, lymphoma cells): able to suppress tumor mass of EL4
- tumor growth suppression / antitumor activity (tumor; vincristine i.p. 2 μg/mouse 8 hours prior to peptide injection): ability to suppress tumor growth
